Counter-ions that a name gives are not always drawn. Like-named read-outs stand apart in the source and are kept apart here.
Target: AaDOP2 (Aedes aegypti, UniProt H6D5H2)
Experiment: AaDOP2 antagonist screen of the LOPAC1280 library (HEK-CRELuc-Aadop2 cells, luminescence)
Type: cell-based
[1] = 10 µM compound, 300 nM dopamine, 2 hr, hit = compound effect <20

Chain of AaDOP2 (H6D5H2 1-476): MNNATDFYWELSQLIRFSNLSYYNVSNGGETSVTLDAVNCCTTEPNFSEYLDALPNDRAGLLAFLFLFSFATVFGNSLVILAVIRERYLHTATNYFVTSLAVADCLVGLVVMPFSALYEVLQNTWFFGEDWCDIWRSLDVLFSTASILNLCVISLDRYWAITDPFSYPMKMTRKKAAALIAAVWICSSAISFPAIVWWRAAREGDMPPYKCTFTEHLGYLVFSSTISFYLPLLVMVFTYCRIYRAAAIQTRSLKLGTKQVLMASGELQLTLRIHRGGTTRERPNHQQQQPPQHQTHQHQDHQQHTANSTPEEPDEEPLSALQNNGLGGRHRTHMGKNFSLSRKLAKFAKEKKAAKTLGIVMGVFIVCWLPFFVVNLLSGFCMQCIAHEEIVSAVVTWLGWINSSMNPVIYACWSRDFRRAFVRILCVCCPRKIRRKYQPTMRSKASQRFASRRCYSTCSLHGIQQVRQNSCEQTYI

## Nc1ncnc2c1ncn2[C@@H]1O[C@H](CO)[C@@H](O)[C@H]1O [Compound 101, Adenosine]
  Compound effect (percent receptor signaling in presence of test compound, relative lux units relative to the SCH23390 control): 96

## N[C@@H](CC(=O)O)C(=O)O [Compound 102, L-Aspartic acid]
  Compound effect (percent receptor signaling in presence of test compound, relative lux units relative to the SCH23390 control): 106

## CC1=C(/C=C/C(C)=C/C=C/C(C)=C/C=C/C=C(C)/C=C/C=C(C)/C=C/C2=C(C)C(=O)[C@@H](O)CC2(C)C)C(C)(C)C[C@H](O)C1=O [Compound 103, Astaxanthin]
  Compound effect (percent receptor signaling in presence of test compound, relative lux units relative to the SCH23390 control): 106

## Nc1ccc(N2C(=O)c3ccccc3C2=O)c(Cl)c1 [Compound 104, N-(4-Amino-2-chlorophenyl)phthalimide]
  Compound effect (percent receptor signaling in presence of test compound, relative lux units relative to the SCH23390 control): 99

## NC(N)=NC(=O)c1nc(Cl)c(N2CCCCCC2)nc1N [Compound 107, 5-(N,N-hexamethylene)amiloride]
[1]
  Compound effect (percent receptor signaling in presence of test compound, relative lux units relative to the SCH23390 control): 82%

## C[C@]12CCC(=O)C=C1CC[C@@H]1[C@@H]2CC[C@]2(C)C(=O)CC[C@@H]12 [Compound 108, 4-Androstene-3,17-dione]
  Compound effect (percent receptor signaling in presence of test compound, relative lux units relative to the SCH23390 control): 115

## COc1cc(NS(C)(=O)=O)ccc1Nc1c2ccccc2nc2ccccc12 [Compound 112, Amsacrine hydrochloride]
  Compound effect (percent receptor signaling in presence of test compound, relative lux units relative to the SCH23390 control): 97

## CN(Cc1cnc2nc(N)nc(N)c2n1)c1ccc(C(=O)N[C@@H](CCC(=O)O)C(=O)O)cc1 [Compound 114, (-)Amethopterin]
  Compound effect (percent receptor signaling in presence of test compound, relative lux units relative to the SCH23390 control): 116

## Cl.c1ccc(CN(CC2=NCCN2)c2ccccc2)cc1 [Compound 115, Antozoline hydrochloride]
[1]
  Compound effect (percent receptor signaling in presence of test compound, relative lux units relative to the SCH23390 control): 115%

## COc1ccc(C(=O)N2CCCC2=O)cc1 [Compound 116, Aniracetam]
  Compound effect (percent receptor signaling in presence of test compound, relative lux units relative to the SCH23390 control): 101

## CCn1c(=O)c2[nH]c(-c3ccccc3)nc2n(CC)c1=O [Compound 117, 1,3-Diethyl-8-phenylxanthine]
  Compound effect (percent receptor signaling in presence of test compound, relative lux units relative to the SCH23390 control): 105

## Cn1c(=O)c2[nH]c(-c3ccc(S(=O)(=O)O)cc3)nc2n(C)c1=O [Compound 118, 8-(p-Sulfophenyl)theophylline]
  Compound effect (percent receptor signaling in presence of test compound, relative lux units relative to the SCH23390 control): 98

## CCCn1c(=O)c2[nH]c(-c3ccc(S(=O)(=O)O)cc3)nc2n(CCC)c1=O [Compound 119, 1,3-Dipropyl-8-p-sulfophenylxanthine]
  Compound effect (percent receptor signaling in presence of test compound, relative lux units relative to the SCH23390 control): 91

## CNC(=O)[C@H]1O[C@@H](n2cnc3c(N)ncnc32)[C@H](O)[C@@H]1O [Compound 121, 5'-N-Methyl carboxamidoadenosine]
[1]
  Compound effect (percent receptor signaling in presence of test compound, relative lux units relative to the SCH23390 control): 114%

## NCCNC(=O)Cc1ccc(NC(=O)Cc2ccc(Nc3ncnc4c3ncn4[C@@H]3O[C@H](CO)[C@@H](O)[C@H]3O)cc2)cc1 [Compound 122, Adenosine amine congener]
  Compound effect (percent receptor signaling in presence of test compound, relative lux units relative to the SCH23390 control): 105

## CN1[C@@H]2CC[C@H]1C[C@@H](OC(c1ccccc1)c1ccccc1N)C2 (some centres unmarked) [Compound 125, Aminobenztropine]
  Compound effect (percent receptor signaling in presence of test compound, relative lux units relative to the SCH23390 control): 30

## C#CCOC(=O)C1=CCCN(C)C1 [Compound 126, Arecaidine propargyl ester hydrobromide]
  Compound effect (percent receptor signaling in presence of test compound, relative lux units relative to the SCH23390 control): 85

## C=CCn1c(=O)c2c(nc(-c3ccc(S(=O)(=O)O)cc3)n2C)n(C)c1=O [Compound 129, 1-Allyl-3,7-dimethyl-8-p-sulfophenylxanthine]
  Compound effect (percent receptor signaling in presence of test compound, relative lux units relative to the SCH23390 control): 100

## Cl.NC1(C(=O)O)CCCCC1 [Compound 132, 1-Amino-1-cyclohexanecarboxylic acid hydrochloride]
  Compound effect (percent receptor signaling in presence of test compound, relative lux units relative to the SCH23390 control): 110

## CC(N)C(=O)OC(C)(C)Cc1ccc(Cl)cc1 (centres unmarked) [Compound 133, Alaproclate hydrochloride]
  Compound effect (percent receptor signaling in presence of test compound, relative lux units relative to the SCH23390 control): 110

## CCN(CC)CC.Nc1ncnc2c1ncn2C1OC2COP(O)(=S)O[C@@H]2[C@@H]1O (some centres unmarked) [Compound 134, Rp-cAMPS triethylamine]
  Compound effect (percent receptor signaling in presence of test compound, relative lux units relative to the SCH23390 control): 67

## Cl.Cn1ccc2cc(NC(=O)Nc3cccnc3)ccc21 [Compound 135, SB 200646 hydrochloride]
[1]
  Compound effect (percent receptor signaling in presence of test compound, relative lux units relative to the SCH23390 control): 106%

## N[C@H](CCCCCP(=O)(O)O)C(=O)O [Compound 136, D(-)-2-Amino-7-phosphonoheptanoic acid]
  Compound effect (percent receptor signaling in presence of test compound, relative lux units relative to the SCH23390 control): 102

## CC(=O)c1ccc(S(=O)(=O)NC(=O)NC2CCCCC2)cc1 [Compound 137, Acetohexamide]
  Compound effect (percent receptor signaling in presence of test compound, relative lux units relative to the SCH23390 control): 115

## CP(=O)(O)CCCN.Cl [Compound 138, SKF 97541 hydrochloride]
  Compound effect (percent receptor signaling in presence of test compound, relative lux units relative to the SCH23390 control): 101

## NC/C=C\C(=O)O [Compound 139, cis-4-Aminocrotonic acid]
  Compound effect (percent receptor signaling in presence of test compound, relative lux units relative to the SCH23390 control): 95

## Nc1ccc(CCNc2ncnc3c2ncn3[C@@H]2O[C@H](CO)[C@@H](O)[C@H]2O)cc1 [Compound 140, N6-2-(4-Aminophenyl)ethyladenosine]
  Compound effect (percent receptor signaling in presence of test compound, relative lux units relative to the SCH23390 control): 97

## CC1=C[C@@H]2c3cccc4[nH]cc(c34)C[C@H]2N(C)C1 [Compound 141, Agroclavine]
  Compound effect (percent receptor signaling in presence of test compound, relative lux units relative to the SCH23390 control): 98

## C#CC(N)CCC(=O)O (centres unmarked) [Compound 142, gamma-Acetylinic GABA]
[1]
  Compound effect (percent receptor signaling in presence of test compound, relative lux units relative to the SCH23390 control): 104%

## CNC(=O)[C@H]1O[C@@H](n2cnc3c(NCc4ccc(N)cc4)ncnc32)[C@H](O)[C@@H]1O [Compound 143, AB-MECA]
[1]
  Compound effect (percent receptor signaling in presence of test compound, relative lux units relative to the SCH23390 control): 100%

## O=c1nc2[nH]c3ccccc3nc-2c(=O)[nH]1 [Compound 144, Alloxazine]
  Compound effect (percent receptor signaling in presence of test compound, relative lux units relative to the SCH23390 control): 104

## O=C(O)[C@@H]1C[C@H](C(=O)O)N1 [Compound 145, cis-Azetidine-2,4-dicarboxylic acid]
  Compound effect (percent receptor signaling in presence of test compound, relative lux units relative to the SCH23390 control): 112

## CC(C)C1C2CCC(C2)C1N.Cl (centres unmarked) [Compound 147, AGN 192403 hydrochloride]
[1]
  Compound effect (percent receptor signaling in presence of test compound, relative lux units relative to the SCH23390 control): 109%

## NC1(C(=O)O)CCc2cc(C(=O)O)ccc21 (centres unmarked) [Compound 148, AIDA]
  Compound effect (percent receptor signaling in presence of test compound, relative lux units relative to the SCH23390 control): 95

## Cl.NC[C@@H]1O[C@H](C23CC4CC(CC(C4)C2)C3)Cc2c1ccc(O)c2O [Compound 149, A-77636 hydrochloride]
[1]
  Compound effect (percent receptor signaling in presence of test compound, relative lux units relative to the SCH23390 control): 113%

## CC(C)(C)c1o[nH]c(=O)c1CC(N)C(=O)O (centres unmarked) [Compound 150, ATPA]
  Compound effect (percent receptor signaling in presence of test compound, relative lux units relative to the SCH23390 control): 101

## CCN(CC)c1ncnc2c1ncn2[C@@H]1O[C@H](COP(=O)([O-])OP(=O)([O-])C(Br)(Br)P(=O)([O-])O)[C@@H](O)[C@H]1O.[Na+].[Na+].[Na+] [Compound 151, ARL 67156 trisodium salt]
[1]
  Compound effect (percent receptor signaling in presence of test compound, relative lux units relative to the SCH23390 control): 115%

## C[C@H]1C[C@H]2[C@@H]3CCC4=CC(=O)C=C[C@]4(C)[C@@]3(Cl)[C@@H](O)C[C@]2(C)[C@@]1(O)C(=O)CO [Compound 152, Beclomethasone]
[1]
  Compound effect (percent receptor signaling in presence of test compound, relative lux units relative to the SCH23390 control): 97%

## CC(=O)C(C)=NO [Compound 153, 2,3-Butanedione monoxime]
  Compound effect (percent receptor signaling in presence of test compound, relative lux units relative to the SCH23390 control): 131

## CC[C@H](NC(=O)c1c(C)c(-c2ccccc2)nc2ccccc12)c1ccccc1 [Compound 154, SB 222200]
  Compound effect (percent receptor signaling in presence of test compound, relative lux units relative to the SCH23390 control): 92

## COc1ccc2c(c1)c(CC(=O)O)c(C)n2C(=O)c1ccccc1 [Compound 155, 1-benzoyl-5-methoxy-2-methylindole-3-acetic acid]
  Compound effect (percent receptor signaling in presence of test compound, relative lux units relative to the SCH23390 control): 105

## O=C1C=CC(=O)C=C1 [Compound 156, p-Benzoquinone]
  Compound effect (percent receptor signaling in presence of test compound, relative lux units relative to the SCH23390 control): 96

## Nc1nc2c(nc(Br)n2[C@@H]2O[C@@H]3COP(=O)([O-])O[C@H]3[C@H]2O)c(=O)[nH]1.[Na+] [Compound 157, 8-Bromo-cGMP sodium]
[1]
  Compound effect (percent receptor signaling in presence of test compound, relative lux units relative to the SCH23390 control): 117%

## O=S(=O)(NCCNC/C=C/c1ccc(Br)cc1)c1cccc2cnccc12 [Compound 158, H-89]
  Compound effect (percent receptor signaling in presence of test compound, relative lux units relative to the SCH23390 control): 46

## O=C1O/C(=C/Br)CCC1c1cccc2ccccc12 (centres unmarked) [Compound 159, Bromoenol lactone]
  Compound effect (percent receptor signaling in presence of test compound, relative lux units relative to the SCH23390 control): 103

## NC(=O)c1ccccc1 [Compound 160, Benzamide]
  Compound effect (percent receptor signaling in presence of test compound, relative lux units relative to the SCH23390 control): 100

## O=[N+]([O-])c1cccc2c(Br)n[nH]c12 [Compound 161, 3-Bromo-7-nitroindazole]
  Compound effect (percent receptor signaling in presence of test compound, relative lux units relative to the SCH23390 control): 83

## CC(C)C[C@H]1C(=O)N2CCC[C@H]2[C@]2(O)O[C@](NC(=O)[C@@H]3C=C4c5cccc6[nH]c(Br)c(c56)C[C@H]4N(C)C3)(C(C)C)C(=O)N12.CS(=O)(=O)O [Compound 162, (+)-Bromocriptine methanesulfonate]
  Compound effect (percent receptor signaling in presence of test compound, relative lux units relative to the SCH23390 control): 37

## Nc1nc(OCc2ccccc2)c2nc[nH]c2n1 [Compound 163, O6-benzylguanine]
  Compound effect (percent receptor signaling in presence of test compound, relative lux units relative to the SCH23390 control): 80

## CC(=O)NBr [Compound 164, N-Bromoacetamide]
[1]
  Compound effect (percent receptor signaling in presence of test compound, relative lux units relative to the SCH23390 control): 104%
